Test system: Transport facilitation protein genes
Test: DNA chip mRNA expression in yeast, transport facilitation protein genes (Table 5)
Assay type: cell-based, Saccharomyces cerevisiae S288C
Protocol: Yeast (Saccharomyces cerevisiae S288C (α SUC2mal mel gap2 CUP1)) were incubated at 25° C. on YPD medium (yeast extract 1%, polypepton 2%, glucose 2%). One of toxic chemical substances was added to the cells at logarithmic growth phase, and the cells were further incubated for two hours. Cells were cultured without any chemical substance in the same condition, and were used as control. Concentrations of the chemical substances were defined to inhibit the growth of the yeast but not lead to death.
After completion of the incubation, the culture was centrifuged to collect the cells. To the cells, sodium acetate buffer (50 mM sodium acetate, 10 mM EDTA, 1% SDS) was added, and the mixture was shaken at 65° C. for five minutes, followed by returning to room temperature, and obtaining the supernatant, of which the procedures were repeated two times. To the supernatant, ½ amount of a solution of phenol/chloroform was added, and the mixture was centrifuged to give a supernatant, which was added with an equal amount of chloroform, and the mixture was centrifuged to give a supernatant. To the supernatant, an equal amount of isopropanol containing 0.3 M sodium acetate was added, and the mixture was allowed to stand at room temperature for 30 minutes, after which the mixture was centrifuged to give a sediment of the whole RNAs. Seventy % ethanol was added to the sediment, and the mixture was again centrifuged to give a sediment, which was then dried and dissolved in water. mRNA was isolated from the whole RNAs as followings. In view of the fact that a poly A chain is attached to the 3′ terminus of mRNA, a polynucleotide having a poly T structure which was immobilized on the surface of latex beads was used to trap the mRNA, and then the mRNA was washed and eluted with spine column (Oligotex-dT30<Super>mRNA Purification Kit, Takara). Reverse transcription of the mRNA was conducted with a reverse transcriptase (Super Script II Reverse Transcriptase; catalogue No. 18064-014, GibcoBRL) using fluorescence-labeled nucleotides to give cDNAs that were introduced with Cy3-dUTP or Cy5-dUTP during the reverse transcription.
The labeled cDNAs were dissolved in TE buffer (10mM Tris-HCl/1 mM EDTA, pH8.0), and the solution was dropped on the DNA chip containing the whole genes of yeast (DNA Chip Research Inc. Japan) so that the cDNAs were hybridized on the DNA chip at 65° C. for over 12 hours. The fluoresces intensity of the DNA chip was read with a scanner, and the ratio relative to the fluorescence intensity resulting from the absence of chemical substance was estimated as the following, which is shown in Tables 1 to 9: […]

## S=C([S-])NCCNC(=S)[S-].[Zn+2] [(11), zinc N,N′-ethylenebis(dithiocarbamate)]
Yeast gene YBL030C
  The level of expressed mRNA in the presence of chemical substance/The level of expressed mRNA in the absence of chemical substance: 1.1
Yeast gene YBL099W
  The level of expressed mRNA in the presence of chemical substance/The level of expressed mRNA in the absence of chemical substance: 2.1
Yeast gene YBR052C
  The level of expressed mRNA in the presence of chemical substance/The level of expressed mRNA in the absence of chemical substance: 1.7
Yeast gene YBR068C
  The level of expressed mRNA in the presence of chemical substance/The level of expressed mRNA in the absence of chemical substance: 0.8
Yeast gene YBR127C
  The level of expressed mRNA in the presence of chemical substance/The level of expressed mRNA in the absence of chemical substance: 1.1
Yeast gene YBR132C
  The level of expressed mRNA in the presence of chemical substance/The level of expressed mRNA in the absence of chemical substance: 1.9
Yeast gene YBR207W
  The level of expressed mRNA in the presence of chemical substance/The level of expressed mRNA in the absence of chemical substance: 1.1
Yeast gene YBR293W
  The level of expressed mRNA in the presence of chemical substance/The level of expressed mRNA in the absence of chemical substance: 1.1
Yeast gene YBR294W
  The level of expressed mRNA in the presence of chemical substance/The level of expressed mRNA in the absence of chemical substance: 1.2
Yeast gene YBR295W
  The level of expressed mRNA in the presence of chemical substance/The level of expressed mRNA in the absence of chemical substance: 1.1
Yeast gene YBR298C
  The level of expressed mRNA in the presence of chemical substance/The level of expressed mRNA in the absence of chemical substance: 1.5
Yeast gene YCL025C
  The level of expressed mRNA in the presence of chemical substance/The level of expressed mRNA in the absence of chemical substance: 1.0
Yeast gene YCL038C
  The level of expressed mRNA in the presence of chemical substance/The level of expressed mRNA in the absence of chemical substance: 2.0
Yeast gene YCR024C-A
  The level of expressed mRNA in the presence of chemical substance/The level of expressed mRNA in the absence of chemical substance: 1.5
Yeast gene YCR037C
  The level of expressed mRNA in the presence of chemical substance/The level of expressed mRNA in the absence of chemical substance: 0.8
Yeast gene YCR098C
  The level of expressed mRNA in the presence of chemical substance/The level of expressed mRNA in the absence of chemical substance: 1.3
Yeast gene YDL128W
  The level of expressed mRNA in the presence of chemical substance/The level of expressed mRNA in the absence of chemical substance: 1.2
Yeast gene YDL198C
  The level of expressed mRNA in the presence of chemical substance/The level of expressed mRNA in the absence of chemical substance: 2.5
Yeast gene YDL210W
  The level of expressed mRNA in the presence of chemical substance/The level of expressed mRNA in the absence of chemical substance: 0.6
Yeast gene YDL245C
  The level of expressed mRNA in the presence of chemical substance/The level of expressed mRNA in the absence of chemical substance: 1.5
Yeast gene YDR038C
  The level of expressed mRNA in the presence of chemical substance/The level of expressed mRNA in the absence of chemical substance: 0.9
Yeast gene YDR039C
  The level of expressed mRNA in the presence of chemical substance/The level of expressed mRNA in the absence of chemical substance: 0.9
Yeast gene YDR086C
  The level of expressed mRNA in the presence of chemical substance/The level of expressed mRNA in the absence of chemical substance: 1.1
Yeast gene YDR270W
  The level of expressed mRNA in the presence of chemical substance/The level of expressed mRNA in the absence of chemical substance: 1.0
Yeast gene YDR298C
  The level of expressed mRNA in the presence of chemical substance/The level of expressed mRNA in the absence of chemical substance: 1.2
Yeast gene YDR342C
  The level of expressed mRNA in the presence of chemical substance/The level of expressed mRNA in the absence of chemical substance: 2.9
Yeast gene YDR343C
  The level of expressed mRNA in the presence of chemical substance/The level of expressed mRNA in the absence of chemical substance: 2.3
Yeast gene YDR345C
  The level of expressed mRNA in the presence of chemical substance/The level of expressed mRNA in the absence of chemical substance: 1.5
Yeast gene YDR387C
  The level of expressed mRNA in the presence of chemical substance/The level of expressed mRNA in the absence of chemical substance: 2.0
Yeast gene YDR497C
  The level of expressed mRNA in the presence of chemical substance/The level of expressed mRNA in the absence of chemical substance: 0.7
Yeast gene YEL027W
  The level of expressed mRNA in the presence of chemical substance/The level of expressed mRNA in the absence of chemical substance: 0.9
Yeast gene YEL063C
  The level of expressed mRNA in the presence of chemical substance/The level of expressed mRNA in the absence of chemical substance: 0.8
Yeast gene YEL065W
  The level of expressed mRNA in the presence of chemical substance/The level of expressed mRNA in the absence of chemical substance: 0.6
Yeast gene YER053C
  The level of expressed mRNA in the presence of chemical substance/The level of expressed mRNA in the absence of chemical substance: 2.4
Yeast gene YER119C
  The level of expressed mRNA in the presence of chemical substance/The level of expressed mRNA in the absence of chemical substance: 2.2
Yeast gene YFL011W
  The level of expressed mRNA in the presence of chemical substance/The level of expressed mRNA in the absence of chemical substance: 2.1
Yeast gene YFL041W
  The level of expressed mRNA in the presence of chemical substance/The level of expressed mRNA in the absence of chemical substance: 0.9
Yeast gene YFL050C
  The level of expressed mRNA in the presence of chemical substance/The level of expressed mRNA in the absence of chemical substance: 1.2
Yeast gene YFL054C
  The level of expressed mRNA in the presence of chemical substance/The level of expressed mRNA in the absence of chemical substance: 1.7
Yeast gene YFL055W
  The level of expressed mRNA in the presence of chemical substance/The level of expressed mRNA in the absence of chemical substance: 2.7
Yeast gene YGL006W
  The level of expressed mRNA in the presence of chemical substance/The level of expressed mRNA in the absence of chemical substance: 0.8
Yeast gene YGL008C
  The level of expressed mRNA in the presence of chemical substance/The level of expressed mRNA in the absence of chemical substance: 0.7
Yeast gene YGL104C
  The level of expressed mRNA in the presence of chemical substance/The level of expressed mRNA in the absence of chemical substance: 1.8
Yeast gene YGL167C
  The level of expressed mRNA in the presence of chemical substance/The level of expressed mRNA in the absence of chemical substance: 0.8
Yeast gene YGL255W
  The level of expressed mRNA in the presence of chemical substance/The level of expressed mRNA in the absence of chemical substance: 0.5
Yeast gene YGR055W
  The level of expressed mRNA in the presence of chemical substance/The level of expressed mRNA in the absence of chemical substance: 1.5
Yeast gene YGR065C
  The level of expressed mRNA in the presence of chemical substance/The level of expressed mRNA in the absence of chemical substance: 1.1
Yeast gene YGR082W
  The level of expressed mRNA in the presence of chemical substance/The level of expressed mRNA in the absence of chemical substance: 1.3
Yeast gene YGR096W
  The level of expressed mRNA in the presence of chemical substance/The level of expressed mRNA in the absence of chemical substance: 0.8
Yeast gene YGR138C
  The level of expressed mRNA in the presence of chemical substance/The level of expressed mRNA in the absence of chemical substance: 0.7
Yeast gene YGR191W
  The level of expressed mRNA in the presence of chemical substance/The level of expressed mRNA in the absence of chemical substance: 1.6
Yeast gene YGR197C
  The level of expressed mRNA in the presence of chemical substance/The level of expressed mRNA in the absence of chemical substance: 1.1
Yeast gene YGR224W
  The level of expressed mRNA in the presence of chemical substance/The level of expressed mRNA in the absence of chemical substance: 0.8
Yeast gene YGR260W
  The level of expressed mRNA in the presence of chemical substance/The level of expressed mRNA in the absence of chemical substance: 1.3
Yeast gene YGR281W
  The level of expressed mRNA in the presence of chemical substance/The level of expressed mRNA in the absence of chemical substance: 0.7
